In PubChem BioAssay AID2060912 (Molecular Pharmacology Branch, DTP, NCI, 2025):
pIC50: −log10 of the molar value.

System: HUVEC/MSC spheroids viability
Assay: Human HUVEC/MSC cell line growth inhibition [KRAS2];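 as to viability, T/C: percent of DMSO vehicle control luminescence so 100% = untreated viability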
Conditions: for pIC50: curve of first compound; for viability, T/C: stronger effect = lower value; active = viability on the fitted dose curve at most 10% of control; inactive = the rest
Method in brief: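 HUVEC + hMSC stromal spheroids only, no malignant cells; 37 °C, 5% CO2. Drugs singly and in pairs, half-log series down from clinical Cmax (max 10 microM if Cmax undetermined).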

CC1COCCN1c1cc(-c2ccnn2C)c2ccnc(-c3ccn[nH]3)c2n1 (centres undefined) + CC1OCC2(CCN(c3cnc(Sc4ccnc(N)c4Cl)c(N)n3)CC2)C1N
6.12: pIC50 (second compound 10 µM)
< 5.52: pIC50 (second compound 0.0316 µM)
5.72: pIC50 (second compound 0.316 µM)
inactive: viability, T/C (second compound 0.0316 µM, first compound 0.00949 µM) 97.8% | viability, T/C (second compound 0.0316 µM, first compound 0.03 µM) 99.4% | viability, T/C (second compound 0.0316 µM, first compound 0.0949 µM) 82.6% | viability, T/C (second compound 0.0316 µM, first compound 0.3 µM) 72.4% | viability, T/C (second compound 0.0316 µM, first compound 0.949 µM) 64.5% | viability, T/C (second compound 0.0316 µM, first compound 3 µM) 51.5% | viability, T/C (second compound 0.1 µM, first compound 0.00949 µM) 95.8% | viability, T/C (second compound 0.1 µM, first compound 0.03 µM) 95.7% | viability, T/C (second compound 0.1 µM, first compound 0.0949 µM) 83.4% | viability, T/C (second compound 0.1 µM, first compound 0.3 µM) 80.4% | viability, T/C (second compound 0.1 µM, first compound 0.949 µM) 62.1% | viability, T/C (second compound 0.1 µM, first compound 3 µM) 48.6% | viability, T/C (second compound 0.316 µM, first compound 0.00949 µM) 105% | viability, T/C (second compound 0.316 µM, first compound 0.03 µM) 101% | viability, T/C (second compound 0.316 µM, first compound 0.0949 µM) 78.9% | viability, T/C (second compound 0.316 µM, first compound 0.3 µM) 64.3% | viability, T/C (second compound 0.316 µM, first compound 0.949 µM) 55.3% | viability, T/C (second compound 0.316 µM, first compound 3 µM) 46.4% | viability, T/C (second compound 1 µM, first compound 0.00949 µM) 82.6% | viability, T/C (second compound 1 µM, first compound 0.03 µM) 94.7% | viability, T/C (second compound 1 µM, first compound 0.0949 µM) 78.3% | viability, T/C (second compound 1 µM, first compound 0.3 µM) 74.5% | viability, T/C (second compound 1 µM, first compound 0.949 µM) 61.6% | viability, T/C (second compound 1 µM, first compound 3 µM) 44.4% | viability, T/C (second compound 3.16 µM, first compound 0.00949 µM) 84.7% | viability, T/C (second compound 3.16 µM, first compound 0.03 µM) 90.5% | viability, T/C (second compound 3.16 µM, first compound 0.0949 µM) 69.1% | viability, T/C (second compound 3.16 µM, first compound 0.3 µM) 63.7% | viability, T/C (second compound 3.16 µM, first compound 0.949 µM) 45% | viability, T/C (second compound 3.16 µM, first compound 3 µM) 32.9% | viability, T/C (second compound 10 µM, first compound 0.00949 µM) 56.2% | viability, T/C (second compound 10 µM, first compound 0.03 µM) 65.5% | viability, T/C (second compound 10 µM, first compound 0.0949 µM) 61.7% | viability, T/C (second compound 10 µM, first compound 0.3 µM) 58.2% | viability, T/C (second compound 10 µM, first compound 0.949 µM) 48% | viability, T/C (second compound 10 µM, first compound 3 µM) 24.7%
6.17: pIC50 (second compound 3.16 µM)
5.69: pIC50 (second compound 1 µM)
5.58: pIC50 (second compound 0.1 µM)

CCNC(=O)CC1N=C(c2ccc(Cl)cc2)c2cc(OC)ccc2-n2c(C)nnc21 (centres undefined) + CC1OCC2(CCN(c3cnc(Sc4ccnc(N)c4Cl)c(N)n3)CC2)C1N
inactive: viability, T/C (second compound 0.0316 µM, first compound 0.0316 µM) 79.7% | viability, T/C (second compound 0.0316 µM, first compound 0.1 µM) 102% | viability, T/C (second compound 0.0316 µM, first compound 0.316 µM) 99.2% | viability, T/C (second compound 0.0316 µM, first compound 1 µM) 87.5% | viability, T/C (second compound 0.0316 µM, first compound 3.16 µM) 110% | viability, T/C (second compound 0.0316 µM, first compound 10 µM) 89.4% | viability, T/C (second compound 0.1 µM, first compound 0.0316 µM) 107% | viability, T/C (second compound 0.1 µM, first compound 0.1 µM) 86.2% | viability, T/C (second compound 0.1 µM, first compound 0.316 µM) 102% | viability, T/C (second compound 0.1 µM, first compound 1 µM) 91.8% | viability, T/C (second compound 0.1 µM, first compound 3.16 µM) 99% | viability, T/C (second compound 0.1 µM, first compound 10 µM) 95.3% | viability, T/C (second compound 0.316 µM, first compound 0.0316 µM) 90.6% | viability, T/C (second compound 0.316 µM, first compound 0.1 µM) 88.6% | viability, T/C (second compound 0.316 µM, first compound 0.316 µM) 87.1% | viability, T/C (second compound 0.316 µM, first compound 1 µM) 88.2% | viability, T/C (second compound 0.316 µM, first compound 3.16 µM) 88% | viability, T/C (second compound 0.316 µM, first compound 10 µM) 84.1% | viability, T/C (second compound 1 µM, first compound 0.0316 µM) 79.3% | viability, T/C (second compound 1 µM, first compound 0.1 µM) 97.8% | viability, T/C (second compound 1 µM, first compound 0.316 µM) 76.6% | viability, T/C (second compound 1 µM, first compound 1 µM) 68.4% | viability, T/C (second compound 1 µM, first compound 3.16 µM) 77.2% | viability, T/C (second compound 1 µM, first compound 10 µM) 58.8% | viability, T/C (second compound 3.16 µM, first compound 0.0316 µM) 83.5% | viability, T/C (second compound 3.16 µM, first compound 0.1 µM) 103% | viability, T/C (second compound 3.16 µM, first compound 0.316 µM) 81.4% | viability, T/C (second compound 3.16 µM, first compound 1 µM) 73.8% | viability, T/C (second compound 3.16 µM, first compound 3.16 µM) 66% | viability, T/C (second compound 3.16 µM, first compound 10 µM) 51.3% | viability, T/C (second compound 10 µM, first compound 0.0316 µM) 66% | viability, T/C (second compound 10 µM, first compound 0.1 µM) 64.5% | viability, T/C (second compound 10 µM, first compound 0.316 µM) 77.8% | viability, T/C (second compound 10 µM, first compound 1 µM) 64% | viability, T/C (second compound 10 µM, first compound 3.16 µM) 49.6% | viability, T/C (second compound 10 µM, first compound 10 µM) 30%
< 5.00: pIC50 (second compound 0.0316 µM) | pIC50 (second compound 0.1 µM) | pIC50 (second compound 0.316 µM) | pIC50 (second compound 1 µM) | pIC50 (second compound 3.16 µM)
5.52: pIC50 (second compound 10 µM)
